# Assay results taken from patent US20040191287A1, “Fumigation process for stored food grains” (priority 2003, published 2004).
# Where two headings read alike, the source gives them in different places.
# How the values were obtained:
# rat [1] = conditions: cited from earlier work
# [2] = test system: T. castaneum mixed-age cultures; test: Mixed-age cultures exposed to allyl acetate in desiccators (Example 3); type: in vivo; conditions: Tribolium castaneum, read-out: Mortality (%) (Mean ± SD); for mortality at 25 µg/mL: 25 mg/liter; for mortality at 50 µg/mL: 50 mg/liter; for mortality at 100 µg/mL: 100 mg/liter; for mortality at 150 µg/mL: 150 mg/liter
# Protocol: (§1) The grain/ flour containing mixed- age culture of the insect was weighted into 15 cm diameter paper plates in 50 gm aliquots and kept in 0.85 litre desiccators. A 9 cm size Whatman No.1 filter circle was placed in each desiccator to act as evaporating surface for allyl acetate when injected. The insects were exposed to 4 doses of allyl acetate i.e., 25, 50, 100 and 150 mg/liter. Allyl acetate was drawn from the bottle using 100 and 250 micro liter liquid syringes and injected into the desiccators, so that the liquid falls on the filter circle inside the desiccator. There were three replicates each for each dose and for each exposure period. […] Insects emerged from wheat (S. oryzae and R. dominica) or survived in wheat flour (T. castaneum) samples were checked at weekly intervals for 8 weeks. Similarly, counts were made in untreated control batches. Mortality in treated batches was determined by taking into account of survival/emergence in controls as 100%. […] For example, allyl acetate at 25 mg/litre with 48-hour exposure caused 99.8% kill in R. dominica whereas, 85.1 and 86.5% mortality was recorded, respectively, in S. oryzae and T. castaneum.
# [3] = test system: S. oryzae mixed-age cultures; test: as above; type: in vivo; conditions: Sitophilus oryzae, read-out: Mortality (%) (Mean ± SD); for mortality at 25 µg/mL: 25 mg/liter; for mortality at 50 µg/mL: 50 mg/liter; for mortality at 100 µg/mL: 100 mg/liter; for mortality at 150 µg/mL: 150 mg/liter
# Protocol: as §1
# [4] = test system: R. dominica mixed-age cultures; test: as above; type: in vivo; conditions: Rhyzopertha dominica, read-out: Mortality (%) (Mean ± SD); for mortality at 25 µg/mL: 25 mg/liter; for mortality at 50 µg/mL: 50 mg/liter; for mortality at 100 µg/mL: 100 mg/liter; for mortality at 150 µg/mL: 150 mg/liter
# Protocol: as §1
# rat [5] = conditions: 1 hr; cited from earlier work
# [6] = test system: R. dominica mixed-age cultures; conditions: 200 mg/liter, 26 ± 2° C., 19.5 liter tin container with 12 kg of wheat
# Protocol: Further fumigation tests were carried out with allyl acetate at 200 mg/litre and with three different exposure periods of 24, 48 and 72 hours in 19.5 litre tin containers filled with 12 kg of wheat. Mixed- age cultures of R. dominica, S. oryzae and T. castaneum were used as the test insects.
# Mixed-age cultures of S. oryzae and R. dominica were obtained by allowing 300 adults of the individual species to breed in about 1 kg of wheat in a 2-liter glass jar. To obtain mixed- age culture of T. castaneum about 300 adults were released into 1 kg of whole-wheat flour plus 5% dried yeast in a 2-litre glass jar. The insect culture jars were kept under the rearing temperature conditions i.e., 25±1° C. for S. oryzae and T. castaneum and 30±1° C. for R. dominica. The infested grain/flour after an incubation period of 7 weeks was used for the experiment. The cultures were weighed into 50 gm aliquots in 21 cm×14 cm size cloth bags. One set of three test insect bags comprising R. dominica, S. oryzae and T. castaneum were kept at the bottom of the container before filling the grain. […] Another set of three-test insect bags was kept on the top layer of grains. The grain-filled containers were, then, fumigated with allyl acetate for 24, 48 and 72 hours at 26±2° C. The commodity was treated with allyl acetate at the dosage of 200 mg/litre. Required quantity of allyl acetate was measured in 10 and 25 ml measuring cylinder and quickly poured on to 5 gm of absorbent cotton wool kept over the grain layer in the tin container. Immediately after dosing, the container was closed with the lid tightly and sealed along the rim with adhesive tape. At the end of the exposure period, the lid was removed to aerate the commodity and the test insect bags were retrieved and the contents transferred to 300 ml capacity glass bottles. Insect survivors in the samples were recorded at weekly intervals for 8 weeks. Mortality in fumigated batches was calculated based on emergence/survivors in controls.
# [7] = test system: R. dominica mixed-age cultures; test: Fumigation in 125 litre plastic drums with 100 kg wheat, with/without perforated tubing (Example 6); type: in vivo, Rhyzopertha dominica; conditions: for Insect Survivors / mortality at 200 µg/mL: R. dominica, 200 mg/liter, 72 hours, 26 ± 2° C., 125 liter drum, 100 kg wheat; for mortality at 200 µg/mL: 72 h, read-out: % mortality based on survivors in untreated controls
# Protocol: (§2) In another set of experiments, fumigations were carried out in the plastic drums with 100 kg […] acetate (27 ml of liquid) was dispensed at one location, that is, on the top layer of the grain. In both sets of experiments, there were 3 replicates for control and fumigated batches.
# (§3) Insect mortality in fumigated batches was determined by taking into consideration of survivors in respective controls as 100%.
# [8] = test system: T. castaneum mixed-age cultures; test: as above; type: in vivo, Tribolium castaneum; conditions: without perforated tubing, 200 mg/liter, 26 ± 2° C., 125 liter drum; for mortality at 200 µg/mL: Tribolium castaneum, 72 h, read-out: % mortality based on survivors in untreated controls; for Insect Survivors: 72 hours
# Protocol: In another set of experiments, fumigations were carried out in the plastic drums with 100 kg of wheat under similar conditions mentioned above except that there was no perforated tubing inserted into the grain and the total dose of allyl acetate (27 ml of liquid) was dispensed at one location, that is, on the top layer of the grain. In both sets of experiments, there were 3 replicates for control and fumigated batches.
# as §3
# [9] = test system: S. oryzae mixed-age cultures; test: as above; type: in vivo, Sitophilus oryzae; conditions: for Insect Survivors / mortality at 200 µg/mL: S. oryzae, 200 mg/liter, 72 hours, 26 ± 2° C., 125 liter drum, 100 kg wheat; for mortality at 200 µg/mL: 72 h, read-out: % mortality based on survivors in untreated controls
# Protocol: as §2, §3
# [10] = test system: T. castaneum mixed-age cultures; test: as above; type: in vivo, Tribolium castaneum; conditions: for Insect Survivors / mortality at 200 µg/mL: T. castaneum, with perforated tubing, 200 mg/liter, 72 hours, 26 ± 2° C., 125 liter drum, 100 kg wheat; for mortality at 200 µg/mL: 72 h, read-out: % mortality based on survivors in untreated controls
# [11] = with perforated tubing, test insect bag at bottom layer
# [12] = with perforated tubing, test insect bag at middle layer
# [13] = with perforated tubing, test insect bag at top layer
# [14] = without perforated tubing, test insect bag at bottom layer
# [15] = without perforated tubing, test insect bag at middle layer
# [16] = without perforated tubing, test insect bag at top layer
# [17] = test insect bag at bottom layer
# [18] = test insect bag at middle layer
compound,measurement,setting,value
C=CCOC(C)=O [allyl acetate],LD 50 rat oral,rat [1],LD 50 rat oral 130 mg/kg
same,mortality at 25 µg/mL,[2]; 24 hours exposure,0%
same,mortality at 50 µg/mL,[2]; 24 hours exposure,82.6 ± 17.8%
same,mortality at 100 µg/mL,[2]; 24 hours exposure,98.4 ± 3.3%
same,mortality at 150 µg/mL,[2]; 24 hours exposure,99.2 ± 1.7%
same,mortality at 25 µg/mL,[2]; 48 hours exposure,86.5%
same,mortality at 50 µg/mL,[2]; 48 hours exposure,100%
same,mortality at 100 µg/mL,[2]; 48 hours exposure,100%
same,mortality at 150 µg/mL,[2]; 48 hours exposure,100%
same,mortality at 25 µg/mL,[2]; 120 hours exposure,51.4 ± 11.6%
same,mortality at 50 µg/mL,[2]; 120 hours exposure,73.4 ± 17.7%
same,mortality at 100 µg/mL,[2]; 120 hours exposure,97.3 ± 3.2%
same,mortality at 150 µg/mL,[2]; 120 hours exposure,100%
same,mortality at 25 µg/mL,[3]; 24 hours exposure,87.9 ± 4.1%
same,mortality at 50 µg/mL,[3]; 24 hours exposure,98 ± 1.5%
same,mortality at 100 µg/mL,[3]; 24 hours exposure,100%
same,mortality at 150 µg/mL,[3]; 24 hours exposure,100%
same,mortality at 25 µg/mL,[3]; 48 hours exposure,85.1%
same,mortality at 50 µg/mL,[3]; 48 hours exposure,98.9 ± 1.3%
same,mortality at 100 µg/mL,[3]; 48 hours exposure,100%
same,mortality at 150 µg/mL,[3]; 48 hours exposure,100%
same,mortality at 25 µg/mL,[3]; 120 hours exposure,98.8 ± 1.8%
same,mortality at 50 µg/mL,[3]; 120 hours exposure,100%
same,mortality at 100 µg/mL,[3]; 120 hours exposure,100%
same,mortality at 150 µg/mL,[3]; 120 hours exposure,100%
same,mortality at 25 µg/mL,[4]; 24 hours exposure,99.8 ± 0.3%
same,mortality at 50 µg/mL,[4]; 24 hours exposure,100%
same,mortality at 100 µg/mL,[4]; 24 hours exposure,100%
same,mortality at 150 µg/mL,[4]; 24 hours exposure,100%
same,mortality at 25 µg/mL,[4]; 48 hours exposure,99.8%
same,mortality at 50 µg/mL,[4]; 48 hours exposure,99.8 ± 0.4%
same,mortality at 100 µg/mL,[4]; 48 hours exposure,100%
same,mortality at 150 µg/mL,[4]; 48 hours exposure,100%
same,mortality at 25 µg/mL,[4]; 120 hours exposure,99.8 ± 0.5%
same,mortality at 50 µg/mL,[4]; 120 hours exposure,100%
same,mortality at 100 µg/mL,[4]; 120 hours exposure,100%
same,mortality at 150 µg/mL,[4]; 120 hours exposure,100%
same,LC 50 rat inhalation,rat [5],LC 50 rat inhalation 1000 ppm/1 hr
same,% mortality based on survivors in controls,[6]; exposure period 24 hour,(100) %
same,No. of survivors from 50 g lots of mixed-age cultures following treatment,[6]; exposure period 24 hour,0
same,% mortality based on survivors in controls,[6]; exposure period 48 hour,(100) %
same,No. of survivors from 50 g lots of mixed-age cultures following treatment,[6]; exposure period 48 hour,0
same,% mortality based on survivors in controls,[6]; exposure period 72 hour,(100) %
same,No. of survivors from 50 g lots of mixed-age cultures following treatment,[6]; exposure period 72 hour,0
same,Insect Survivors,[7]; [11],0
same,Insect Survivors,[7]; [12],0
same,Insect Survivors,[7]; [13],0
same,Insect Survivors,[7]; [14],0.67
same,Insect Survivors,[7]; [15],0
same,Insect Survivors,[7]; [16],0
same,mortality at 200 µg/mL,"[7]; Rhyzopertha dominica, with perforated tubing, bottom layer",100%
same,mortality at 200 µg/mL,"[7]; Rhyzopertha dominica, with perforated tubing, middle layer",100%
same,mortality at 200 µg/mL,"[7]; Rhyzopertha dominica, with perforated tubing, top layer",100%
same,mortality at 200 µg/mL,"[7]; Rhyzopertha dominica, without perforated tubing, bottom layer",99.6%
same,mortality at 200 µg/mL,"[7]; Rhyzopertha dominica, without perforated tubing, middle layer",100%
same,mortality at 200 µg/mL,"[7]; Rhyzopertha dominica, without perforated tubing, top layer",100%
same,dosage for 100% kill of all stages,"[7]; Rhyzopertha dominica, all stages, preferred exposure period 72 hours",200 mg per litre of space
same,mortality at 200 µg/mL,[8]; bottom layer,0%
same,mortality at 200 µg/mL,[8]; middle layer,100%
same,mortality at 200 µg/mL,[8]; top layer,99.4%
same,Insect Survivors,[8]; [17],39.00
same,Insect Survivors,[8]; [18],0
same,Insect Survivors,[8]; test insect bag at top layer,0.33
same,Insect Survivors,[9]; [11],0
same,Insect Survivors,[9]; [12],0
same,Insect Survivors,[9]; [13],0
same,Insect Survivors,[9]; [14],22.33
same,Insect Survivors,[9]; [15],0.33
same,Insect Survivors,[9]; [16],0
same,mortality at 200 µg/mL,"[9]; Sitophilus oryzae, with perforated tubing, bottom layer",100%
same,mortality at 200 µg/mL,"[9]; Sitophilus oryzae, with perforated tubing, middle layer",100%
same,mortality at 200 µg/mL,"[9]; Sitophilus oryzae, with perforated tubing, top layer",100%
same,mortality at 200 µg/mL,"[9]; Sitophilus oryzae, without perforated tubing, bottom layer",95.3%
same,mortality at 200 µg/mL,"[9]; Sitophilus oryzae, without perforated tubing, middle layer",99.9%
same,mortality at 200 µg/mL,"[9]; Sitophilus oryzae, without perforated tubing, top layer",100%
same,dosage for 100% kill of all stages,"[9]; Sitophilus oryzae, all stages, preferred exposure period 72 hours",200 mg per litre of space
same,Insect Survivors,[10]; [17],0
same,Insect Survivors,[10]; [18],0
same,Insect Survivors,[10]; test insect bag at top layer,0
same,mortality at 200 µg/mL,"[10]; Tribolium castaneum, bottom layer",100%
same,mortality at 200 µg/mL,"[10]; Tribolium castaneum, middle layer",100%
same,mortality at 200 µg/mL,"[10]; Tribolium castaneum, top layer",100%
same,dosage for 100% kill of all stages,"[10]; Tribolium castaneum, all stages, preferred exposure period 72 hours",200 mg per litre of space
